Tests used:
[1] = tested on: SiHa; experiment: CCK-8 cell growth inhibition, SiHa; type: cell-based, human; details: Homo sapiens, SiHa; CCK-8 assay, 72-h incubation; read-out: Cell Lines IC50 SiHa
Experimental: (§1) In vitro anticancer screening of all newly synthesized compounds towards human solid tumor cells, cervical (SiHa) and ovarian (SKOV3) cancer cell lines, was carried out by standard CCK-8 assay with cisplatin as the positive control, as cisplatin is one of the most used chemotherapy drugs. […] The compound was further evaluated in a dose response study against a panel of solid tumor cells, including cervical cancer cell lines (SiHa and HeLa), ovarian cancer cell lines (SKOV3 and OVCAR-5), breast cancer cell lines (4T1 and MCF-7), lung cancer cell lines (A549 and H460) to test cytotoxic activity. The IC50 values were summarized in Table 2, including the cytotoxic activity of the cisplatin used as reference compound.
(§2) The viability of cells as determined using the CCK8 assay method. Cells were seeded (2000–3000 cells per well) in 96-well plates. After incubation for 24 h in serum-containing media, the cells were treated with drugs at different concentrations diluted with culture medium for 72 h at 37 °C with a 5% CO2 atmosphere. Then, 10 μL CCK8 regent (Promega, WI) was added to each well, and the plates were incubated for 1–4 h at 37 °C. Finally, absorbance values of test wells (AS), control wells (AC) and blank wells (Ab) at 450 nm were read using the Microplate Reader (Promega, WI). Inhibition ratios were calculated as follows: [(AC − AS)/ (AC−Ab)] × 100%. IC50 values were calculated using GraphPad software.

[2] = tested on: MCF-7; experiment: CCK-8 cell growth inhibition, MCF-7; type: cell-based, human; details: Homo sapiens, MCF7; breast cancer; CCK-8 assay, 72-h incubation
Experimental: as §1
as §2, with “Then, 10 μL CCK8 regent (Promega, WI) was added to each well, and the plates were incubated for 1–4 h at 37 °C.” left out

[3] = tested on: 4T1; experiment: CCK-8 cell growth inhibition, 4T1; type: cell-based; details: Mus musculus, 4T1; breast cancer; CCK-8 assay, 72-h incubation
Experimental: as §1
as §2, with “Then, 10 μL CCK8 regent (Promega, WI) was added to each well, and the plates were incubated for 1–4 h at 37 °C.” left out

[4] = target: T1, CDK9/cyclin T1(h) (Homo sapiens, UniProt P50750); experiment: Kinase inhibition assay (Eurofins KinaseProfiler); type: biochemical; details: ATP at Km
T1 construct: purchased Eurofins (KinaseProfiler service)
Experimental: (§3) Kinase inhibition profiles were determined using KinaseProfiler services provided by Eurofins, and ATP concentrations used are the Km of corresponding kinases.
CDK9/cyclinT1 (h) was incubated with 8 mM MOPS pH 7.0, 0.2 mM EDTA, 100 uM […], 10 mM MgAcetate and [gamma-33P]-ATP (specific activity and concentration as required).
(§4) All the reactions above were initiated by the addition of the Mg/ATP mix. After incubation for 40 min at room temperature, the reaction was stopped by the addition of phosphoric acid to a concentration of 0.5%. An amount of 10 µL of the reaction was then spotted onto a P30 filtermat and washed four times for 4 min in 0.425% phosphoric acid and once in methanol prior to drying and scintillation counting.

[5] = target: T2, KDR (VEGFR2) (Homo sapiens, UniProt P35968); experiment: Kinase inhibition assay (Eurofins KinaseProfiler); type: biochemical; details: ATP at Km
T2 construct: purchased Eurofins (KinaseProfiler service)
Experimental: as §3
KDR (h) was incubated with 8 mM MOPS pH 7.0, 0.2 mM EDTA, 0.33 mg/mL myelin basic protein, 10 mM MgAcetate and [gamma-33P]-ATP.
as §4

[6] = target: T3, c-Kit(h) (Homo sapiens, UniProt P10721); experiment: Kinase inhibition assay (Eurofins KinaseProfiler); type: biochemical; details: ATP at Km
T3 construct: purchased Eurofins (KinaseProfiler service)
Experimental: as §3
c-Kit (h) was incubated with 8 mM MOPS pH 7.0, 0.2 mM EDTA, 10 mM MnCl2, 0.1 mg/mL poly(Glu, Tyr) 4:1, 10 mM MgAcetate and [gamma-33P]-ATP.
as §4

[7] = target: T4, PDGFR-alfa(h) (Homo sapiens, UniProt P16234); experiment: Kinase inhibition assay (Eurofins KinaseProfiler); type: biochemical; details: ATP at Km
T4 construct: purchased Eurofins (KinaseProfiler service)
Experimental: as §3
(§5) PDGFR-alfa(h) [PDGFR-beta(h)] was incubated with 8 mM MOPS pH 7.0, 0.2 mM EDTA, 0.1 mg/mL poly(Glu, Tyr) 4:1, 10 mM MnCl2, 10 mM MgAcetate and [gamma-33P]-ATP.
as §4

[8] = target: T5, PDGFR-beta(h) (Homo sapiens, UniProt P09619); experiment: Kinase inhibition assay (Eurofins KinaseProfiler); type: biochemical; details: ATP at Km
T5 construct: purchased Eurofins (KinaseProfiler service)
Experimental: as §3, §5, §4

[9] = tested on: SiHa cells; experiment: Cell cycle assay (propidium iodide, flow cytometry); type: cell-based, human; details: 0.04 μM, 24 h
Experimental: To understand how 12O inhibited cell proliferation, cell cycle analysis was performed. The effect of 12O on cell cycle distribution was assessed in the SiHa cell lines. […] Of note, 12O at 0.04 μM was able to increase the proportion of the cells in the G2/M phase from approximately 16.0 ± 1.3% (DMSO) to 22.3 ± 0.7%, and decreased the corresponding fraction of the cells in the S phase from about 22.8 ± 0.4 % (DMSO) to 16.1 ± 1.1 % (Figure 3).
Cells were plated on 6-well culture plates at a density of 5 × 10^5 cells/mL. The cells were treated with the indicated concentrations of 12O or ribociclib for 24 h after their adherence. Cells were washed with PBS for three times and then fixed with ice cold 75% ethanol overnight. The fixed cells were then washed with PBS and stained with propidium iodide ([…]) in the presence of RNase A (0.5 mg) for 30 min at 37 °C. The stained cells were then subjected to flow cytometry (Becton Dickinson (BD), San Jose, CA, USA.) for cell cycle analysis.

[10] = tested on: SiHa cells; experiment: Colony formation assay, SiHa; type: cell-based, human
Description: Colony formation assay assesses the effect of a therapy on clonogenic survival which is one of the most important parameters of therapy efficacy in oncology. […] We also performed colony formation assay in SKOV3 cells at concentrations according to IC50 values to confirm the result (Figure S3).
Cells treated with indicated compounds or vehicle were washed with PBS, trypsinized, and reseeded into 6-well plates at 500–1000 cells per well. The colonies were allowed to form for 10–15 days. At the end of the culture, cells were washed with PBS, fixed with methanol for 30 min, then stained with 0.5% crystal violet overnight. After careful washing, the images were taken.

T1 sequence (P50750 whole entry): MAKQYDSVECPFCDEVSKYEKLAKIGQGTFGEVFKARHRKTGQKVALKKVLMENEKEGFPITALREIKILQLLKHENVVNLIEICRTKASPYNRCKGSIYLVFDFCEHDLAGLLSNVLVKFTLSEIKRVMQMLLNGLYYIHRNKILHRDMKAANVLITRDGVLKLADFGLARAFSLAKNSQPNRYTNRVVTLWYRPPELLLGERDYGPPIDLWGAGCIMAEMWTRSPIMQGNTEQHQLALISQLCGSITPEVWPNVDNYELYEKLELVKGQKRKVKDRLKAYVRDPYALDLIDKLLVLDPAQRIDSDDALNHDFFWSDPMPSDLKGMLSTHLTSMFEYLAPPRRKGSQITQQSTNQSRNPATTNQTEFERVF
T1 sequence (O60563 whole entry partner): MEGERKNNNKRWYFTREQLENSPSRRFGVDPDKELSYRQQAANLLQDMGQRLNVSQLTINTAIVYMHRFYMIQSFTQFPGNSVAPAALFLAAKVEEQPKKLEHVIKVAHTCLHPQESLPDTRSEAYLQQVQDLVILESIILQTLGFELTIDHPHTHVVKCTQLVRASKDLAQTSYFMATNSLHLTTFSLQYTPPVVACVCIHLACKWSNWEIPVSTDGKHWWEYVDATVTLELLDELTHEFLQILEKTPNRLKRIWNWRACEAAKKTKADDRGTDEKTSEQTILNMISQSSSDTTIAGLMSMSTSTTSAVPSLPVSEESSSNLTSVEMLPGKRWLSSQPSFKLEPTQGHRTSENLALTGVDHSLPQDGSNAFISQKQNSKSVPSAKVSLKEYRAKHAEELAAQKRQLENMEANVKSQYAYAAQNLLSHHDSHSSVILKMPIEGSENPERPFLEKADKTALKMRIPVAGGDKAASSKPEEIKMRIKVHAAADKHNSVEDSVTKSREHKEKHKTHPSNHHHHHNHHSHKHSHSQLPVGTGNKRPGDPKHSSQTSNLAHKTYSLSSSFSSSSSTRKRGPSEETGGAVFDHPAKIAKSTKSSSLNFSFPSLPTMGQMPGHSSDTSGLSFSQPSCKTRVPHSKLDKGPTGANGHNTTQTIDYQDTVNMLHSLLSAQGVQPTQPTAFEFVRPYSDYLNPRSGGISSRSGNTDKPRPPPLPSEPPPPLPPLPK
T3 sequence (P10721 26-976): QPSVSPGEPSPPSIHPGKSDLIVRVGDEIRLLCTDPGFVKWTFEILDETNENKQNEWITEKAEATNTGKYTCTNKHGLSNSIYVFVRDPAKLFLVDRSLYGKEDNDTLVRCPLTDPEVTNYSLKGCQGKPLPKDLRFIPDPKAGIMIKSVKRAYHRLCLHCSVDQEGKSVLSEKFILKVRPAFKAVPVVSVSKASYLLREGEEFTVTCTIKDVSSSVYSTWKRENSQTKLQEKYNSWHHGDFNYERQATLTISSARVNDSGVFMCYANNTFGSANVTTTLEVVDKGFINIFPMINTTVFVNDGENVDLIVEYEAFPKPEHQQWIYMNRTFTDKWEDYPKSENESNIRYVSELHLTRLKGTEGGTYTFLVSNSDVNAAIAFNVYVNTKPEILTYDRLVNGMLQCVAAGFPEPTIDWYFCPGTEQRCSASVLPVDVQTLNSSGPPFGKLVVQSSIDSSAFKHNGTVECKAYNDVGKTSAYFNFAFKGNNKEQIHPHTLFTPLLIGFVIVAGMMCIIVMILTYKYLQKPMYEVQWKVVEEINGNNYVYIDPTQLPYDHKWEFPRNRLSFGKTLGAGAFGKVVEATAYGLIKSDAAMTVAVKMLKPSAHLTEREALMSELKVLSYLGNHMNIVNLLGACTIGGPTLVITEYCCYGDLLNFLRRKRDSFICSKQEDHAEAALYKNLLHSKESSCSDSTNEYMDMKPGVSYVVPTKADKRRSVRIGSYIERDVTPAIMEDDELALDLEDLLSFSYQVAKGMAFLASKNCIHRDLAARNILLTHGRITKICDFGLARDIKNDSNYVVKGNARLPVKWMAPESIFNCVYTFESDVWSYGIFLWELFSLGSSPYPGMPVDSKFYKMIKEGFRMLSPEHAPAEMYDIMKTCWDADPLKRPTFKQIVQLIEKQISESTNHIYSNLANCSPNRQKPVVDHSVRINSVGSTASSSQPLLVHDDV
T4 sequence (P16234 24-1089): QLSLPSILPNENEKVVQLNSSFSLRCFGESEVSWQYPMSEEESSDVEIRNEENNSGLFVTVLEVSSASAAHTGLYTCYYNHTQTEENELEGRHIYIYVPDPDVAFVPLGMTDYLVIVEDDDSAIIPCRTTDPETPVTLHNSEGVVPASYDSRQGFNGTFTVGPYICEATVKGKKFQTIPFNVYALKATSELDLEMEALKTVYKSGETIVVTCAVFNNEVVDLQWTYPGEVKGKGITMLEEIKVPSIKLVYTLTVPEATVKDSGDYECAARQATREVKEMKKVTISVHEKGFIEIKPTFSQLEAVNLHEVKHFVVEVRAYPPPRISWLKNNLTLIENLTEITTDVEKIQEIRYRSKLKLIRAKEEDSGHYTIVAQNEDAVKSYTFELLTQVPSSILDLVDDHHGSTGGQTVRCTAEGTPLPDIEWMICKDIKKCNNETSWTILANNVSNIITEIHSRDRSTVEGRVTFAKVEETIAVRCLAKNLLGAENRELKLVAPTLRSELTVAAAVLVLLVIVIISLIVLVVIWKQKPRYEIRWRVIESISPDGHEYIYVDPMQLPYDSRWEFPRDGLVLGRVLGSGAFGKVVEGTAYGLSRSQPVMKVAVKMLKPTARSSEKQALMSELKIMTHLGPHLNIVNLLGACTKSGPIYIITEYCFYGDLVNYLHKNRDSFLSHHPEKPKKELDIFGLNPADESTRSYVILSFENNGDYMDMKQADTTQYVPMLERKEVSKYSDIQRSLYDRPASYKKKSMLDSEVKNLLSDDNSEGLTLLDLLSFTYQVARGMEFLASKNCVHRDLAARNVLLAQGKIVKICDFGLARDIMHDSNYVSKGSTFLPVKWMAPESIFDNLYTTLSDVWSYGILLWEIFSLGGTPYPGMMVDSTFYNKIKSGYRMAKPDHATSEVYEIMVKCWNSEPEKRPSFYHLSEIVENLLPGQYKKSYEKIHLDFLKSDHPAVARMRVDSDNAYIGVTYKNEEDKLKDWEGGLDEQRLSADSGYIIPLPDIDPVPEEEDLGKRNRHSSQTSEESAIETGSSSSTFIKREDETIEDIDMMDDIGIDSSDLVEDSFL
T2 sequence (P35968 20-1356): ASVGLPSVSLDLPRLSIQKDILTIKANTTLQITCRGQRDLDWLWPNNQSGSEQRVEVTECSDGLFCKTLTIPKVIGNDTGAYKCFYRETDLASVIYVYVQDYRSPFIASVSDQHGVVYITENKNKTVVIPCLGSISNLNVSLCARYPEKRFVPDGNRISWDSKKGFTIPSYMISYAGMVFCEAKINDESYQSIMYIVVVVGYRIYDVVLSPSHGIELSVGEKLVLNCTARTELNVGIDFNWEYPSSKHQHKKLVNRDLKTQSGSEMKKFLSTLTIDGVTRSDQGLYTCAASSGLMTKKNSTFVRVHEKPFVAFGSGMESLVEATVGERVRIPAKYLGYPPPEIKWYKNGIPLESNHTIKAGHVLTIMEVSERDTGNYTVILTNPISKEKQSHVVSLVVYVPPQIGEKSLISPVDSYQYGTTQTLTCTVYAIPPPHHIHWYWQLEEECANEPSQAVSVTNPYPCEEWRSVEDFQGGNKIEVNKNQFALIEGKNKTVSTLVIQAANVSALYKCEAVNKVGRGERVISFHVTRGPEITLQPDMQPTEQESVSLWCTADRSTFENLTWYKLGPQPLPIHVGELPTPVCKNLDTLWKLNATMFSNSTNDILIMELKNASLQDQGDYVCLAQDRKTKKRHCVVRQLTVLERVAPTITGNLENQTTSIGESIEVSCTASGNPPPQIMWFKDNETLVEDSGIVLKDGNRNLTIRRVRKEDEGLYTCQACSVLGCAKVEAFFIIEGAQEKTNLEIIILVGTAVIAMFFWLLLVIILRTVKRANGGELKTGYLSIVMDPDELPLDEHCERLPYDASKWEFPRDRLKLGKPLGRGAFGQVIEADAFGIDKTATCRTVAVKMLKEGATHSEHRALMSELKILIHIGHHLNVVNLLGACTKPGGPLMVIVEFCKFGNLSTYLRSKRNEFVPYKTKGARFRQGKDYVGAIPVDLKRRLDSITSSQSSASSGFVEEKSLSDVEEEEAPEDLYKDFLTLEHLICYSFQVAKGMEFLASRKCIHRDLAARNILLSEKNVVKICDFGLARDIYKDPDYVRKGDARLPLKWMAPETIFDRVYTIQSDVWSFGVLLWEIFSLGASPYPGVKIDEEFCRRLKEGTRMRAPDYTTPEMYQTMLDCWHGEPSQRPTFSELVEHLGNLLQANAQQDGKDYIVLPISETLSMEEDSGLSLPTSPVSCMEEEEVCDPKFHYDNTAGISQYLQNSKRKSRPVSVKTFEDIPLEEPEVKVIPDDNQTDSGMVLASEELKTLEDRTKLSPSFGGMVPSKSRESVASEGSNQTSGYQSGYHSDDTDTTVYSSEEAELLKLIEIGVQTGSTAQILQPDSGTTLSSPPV

CC(C)n1nnc2ccc(-c3nc(Nc4ccc(CNC(=O)C5(C(=O)Nc6ccccc6)CC5)cc4)ncc3F)cc21 [12O] gave an IC50 [1] of 9 nM, an IC50 [2] of 10 nM and an IC50 [3] of 68 nM. It also gave an inhibition at 1 µM ([4]; 1 µM) of 100%, an IC50 [4] of 9 nM and an inhibition at 1 µM [5] of 81%. The inhibition at 1 µM [6] was 15%, the inhibition at 1 µM [7] was -1% and the inhibition at 1 µM [8] was 12%. For the same compound, the “proportion of the cells in the G2/M phase” value ([9]; DMSO 16.0 ± 1.3%) was 22.3 ± 0.7%, the “fraction of the cells in the S phase” value ([9]; DMSO 22.8 ± 0.4 %) was 16.1 ± 1.1% and the formation of colonies [10] was “dose-dependently decreased”.
